Experimental data as given in patent US20250382344A1, “Soluble GLP1/GIP/NPY2 Receptor Triple Agonists” (Boehringer Ingelheim International GmH, priority 2024, published 2025).

Test: Solubility in 0.1 M phosphate buffer at pH 7
Format: physicochemical
Conditions: 0.1 M phosphate buffer at pH 7, 10 mg/mL final peptide concentration, shaking 2 hours at room temperature, peptides as TFA-salts, measured sample pH 6.5-7.0; for solubility: read-out: Solubility

solubility	solubility at 2 h	Compound
9100 µg/mL		CC[C@H](C)[C@H](NC(=O)[C@H](Cc1ccccc1)NC(=O)[C@H](C)NC(=O)C(C)(C)NC(=O)[C@H](CCC(N)=O)NC(=O)[C@H](C)NC(=O)[C@H](CCC(N)=O)NC(=O)[C@H](CCCCN)NC(=O)[C@H](CC(=O)O)NC(=O)[C@H](CC(C)C)NC(=O)C(C)(C)NC(=O)[C@@H](NC(=O)[C@H](CO)NC(=O)[C@H](Cc1ccc(O)cc1)NC(=O)[C@H](CC(=O)O)NC(=O)[C@H](CO)NC(=O)[C@@H](NC(=O)[C@H](Cc1ccccc1)NC(=O)[C@@H](NC(=O)CNC(=O)[C@H](CCC(=O)O)NC(=O)C(C)(C)NC(=O)[C@@H](N)Cc1ccc(O)cc1)[C@@H](C)O)[C@@H](C)O)[C@@H](C)CC)C(=O)N[C@@H](CCCNC(=N)N)C(=O)N[C@@H](Cc1c[nH]cn1)C(=O)N[C@@H](CC(C)C)C(=O)N[C@H](C(=O)N[C@@H](CC(N)=O)C(=O)N[C@@H](CCCCNC(=O)[C@@H](N)CCCCNC(=O)CC[C@H](NC(=O)CC[C@H](NC(=O)CC[C@H](NC(=O)CC[C@H](NC(=O)CC[C@H](NC(=O)CC[C@H](NC(=O)CCCCCCCCCCCCCCCCC(=O)O)C(=O)O)C(=O)O)C(=O)O)C(=O)O)C(=O)O)C(=O)O)C(=O)NC(C)(C)C(=O)N[C@H](C(=O)N[C@@H](CCCNC(=N)N)C(=O)N[C@@H](CCC(N)=O)C(=O)N[C@@H](CCCNC(=N)N)C(=O)N[C@@H](Cc1ccc(O)cc1)C(N)=O)[C@@H](C)O)[C@@H](C)CC [Compound 102, Y-Aib-E-G-T-F-T-S-D-Y-S-I-Aib-L-D-K-Q-A-Q-Aib-A-F-I-R-H-L-I-N-K(1,3)-Aib-T-R-Q-R-Y-NH2.C18DA-gGlu-gGlu-gGlu-gGlu-gGlu-gGlu-eLys(1,2)]
	9000 µg/mL	CC[C@H](C)[C@H](NC(=O)[C@H](CC(C)C)NC(=O)[C@H](Cc1c[nH]cn1)NC(=O)[C@H](CCCNC(=N)N)NC(=O)[C@@H](NC(=O)[C@H](Cc1ccccc1)NC(=O)[C@H](C)NC(=O)C(C)(C)NC(=O)[C@H](CCC(=O)O)NC(=O)[C@H](C)NC(=O)[C@H](CCC(N)=O)NC(=O)[C@H](CCCCN)NC(=O)[C@H](CCC(=O)O)NC(=O)[C@H](CC(C)C)NC(=O)C(C)(C)NC(=O)[C@@H](NC(=O)[C@H](CO)NC(=O)[C@H](Cc1ccc(O)cc1)NC(=O)[C@H](CC(=O)O)NC(=O)[C@H](CO)NC(=O)[C@@H](NC(=O)[C@H](Cc1ccccc1)NC(=O)[C@@H](NC(=O)CNC(=O)[C@H](CCC(=O)O)NC(=O)C(C)(C)NC(=O)[C@@H](N)Cc1ccc(O)cc1)[C@@H](C)O)[C@@H](C)O)[C@@H](C)CC)C(C)C)C(=O)N[C@@H](CC(N)=O)C(=O)N[C@@H](CCCCNC(=O)[C@@H](N)CCCCNC(=O)[C@@H](N)CCCCNC(=O)CC[C@H](NC(=O)CC[C@H](NC(=O)CC[C@H](NC(=O)CC[C@H](NC(=O)CC[C@H](NC(=O)CC[C@H](NC(=O)CCCCCCCCCCCCCCCCCCC(=O)O)C(=O)O)C(=O)O)C(=O)O)C(=O)O)C(=O)O)C(=O)O)C(=O)NC(C)(C)C(=O)N[C@H](C(=O)N[C@@H](CCCNC(=N)N)C(=O)N[C@@H](CCC(N)=O)C(=O)N[C@@H](CCCNC(=N)N)C(=O)N[C@@H](Cc1ccc(O)cc1)C(N)=O)[C@@H](C)O [Compound 82, Y-Aib-E-G-T-F-T-S-D-Y-S-I-Aib-L-E-K-Q-A-E-Aib-A-F-V-R-H-L-I-N-K(1,3)-Aib-T-R-Q-R-Y-NH2.C20DA-gGlu-gGlu-gGlu-gGlu-gGlu-gGlu-eLys-eLys(1,2)]
8100 µg/mL		CC[C@H](C)[C@H](NC(=O)[C@H](CCCCN)NC(=O)[C@H](CCC(=O)O)NC(=O)[C@H](CC(C)C)NC(=O)C(C)(C)NC(=O)[C@@H](NC(=O)[C@H](CO)NC(=O)[C@H](Cc1ccc(O)cc1)NC(=O)[C@H](CC(=O)O)NC(=O)[C@H](CO)NC(=O)[C@@H](NC(=O)[C@H](Cc1ccccc1)NC(=O)[C@@H](NC(=O)CNC(=O)[C@H](CCC(=O)O)NC(=O)C(C)(C)NC(=O)[C@@H](N)Cc1ccc(O)cc1)[C@@H](C)O)[C@@H](C)O)[C@@H](C)CC)C(=O)N[C@@H](C)C(=O)N[C@@H](CCC(N)=O)C(=O)NC(C)(C)C(=O)N[C@@H](C)C(=O)N[C@@H](Cc1ccccc1)C(=O)N[C@H](C(=O)N[C@@H](CCCNC(=N)N)C(=O)N[C@@H](Cc1c[nH]cn1)C(=O)N[C@@H](CC(C)C)C(=O)N[C@H](C(=O)N[C@@H](CC(N)=O)C(=O)N[C@@H](CCCCNC(=O)[C@@H](N)CCCCNC(=O)CC[C@H](NC(=O)CC[C@H](NC(=O)CC[C@H](NC(=O)CC[C@H](NC(=O)CC[C@H](NC(=O)CC[C@H](NC(=O)CCCCCCCCCCCCCCCCC(=O)O)C(=O)O)C(=O)O)C(=O)O)C(=O)O)C(=O)O)C(=O)O)C(=O)NC(C)(C)C(=O)N[C@H](C(=O)N[C@@H](CCCNC(=N)N)C(=O)N[C@@H](CCC(N)=O)C(=O)N[C@@H](CCCNC(=N)N)C(=O)N[C@@H](Cc1ccc(O)cc1)C(N)=O)[C@@H](C)O)[C@@H](C)CC)C(C)C [Compound 24, Y-Aib-E-G-T-F-T-S-D-Y-S-I-Aib-L-E-K-I-A-Q-Aib-A-F-V-R-H-L-I-N-K(1,3)-Aib-T-R-Q-R-Y-NH2.C18DA-gGlu-gGlu-gGlu-gGlu-gGlu-gGlu-eLys(1,2)]
	10000 µg/mL	CC[C@H](C)[C@H](NC(=O)[C@H](CC(C)C)NC(=O)[C@H](Cc1c[nH]cn1)NC(=O)[C@H](CCCNC(=N)N)NC(=O)[C@@H](NC(=O)[C@H](Cc1ccccc1)NC(=O)[C@H](C)NC(=O)C(C)(C)NC(=O)[C@H](CCC(N)=O)NC(=O)[C@H](C)NC(=O)[C@H](CCC(N)=O)NC(=O)[C@H](CCCCN)NC(=O)[C@H](CCC(=O)O)NC(=O)[C@H](CC(C)C)NC(=O)C(C)(C)NC(=O)[C@@H](NC(=O)[C@H](CO)NC(=O)[C@H](Cc1ccc(O)cc1)NC(=O)[C@H](CC(=O)O)NC(=O)[C@H](CO)NC(=O)[C@@H](NC(=O)[C@H](Cc1ccccc1)NC(=O)[C@@H](NC(=O)[C@H](C)NC(=O)[C@H](CCC(=O)O)NC(=O)C(C)(C)NC(=O)[C@@H](N)Cc1ccc(O)cc1)[C@@H](C)O)[C@@H](C)O)[C@@H](C)CC)C(C)C)C(=O)N[C@@H](CC(N)=O)C(=O)N[C@@H](CCCCNC(=O)[C@@H](N)CCCCNC(=O)CC[C@H](NC(=O)CC[C@H](NC(=O)CC[C@H](NC(=O)CC[C@H](NC(=O)CC[C@H](NC(=O)CC[C@H](NC(=O)CCCCCCCCCCCCCCCCC(=O)O)C(=O)O)C(=O)O)C(=O)O)C(=O)O)C(=O)O)C(=O)O)C(=O)NC(C)(C)C(=O)N[C@H](C(=O)N[C@@H](CCCNC(=N)N)C(=O)N[C@@H](CCC(N)=O)C(=O)N[C@@H](CCCNC(=N)N)C(=O)N[C@@H](Cc1ccc(O)cc1)C(N)=O)[C@@H](C)O [Compound 93, Y-Aib-E-A-T-F-T-S-D-Y-S-I-Aib-L-E-K-Q-A-Q-Aib-A-F-V-R-H-L-I-N-K(1,3)-Aib-T-R-Q-R-Y-NH2.C18DA-gGlu-gGlu-gGlu-gGlu-gGlu-gGlu-eLys(1,2)]
